Assay results published in paper PMC11056980 (Journal of medicinal chemistry, 2024).

Legend:
SARS-CoV-2 M^Pro = SARS-CoV-2 M^Pro (Severe acute respiratory syndrome coronavirus 2, UniProt P0DTD1); assay type: biochemical; details: 20 nM M^Pro, 30 min preincubation, 10 μM Sub3
in vitro [1] = details: human, microsomes, pH 7.4
SARS-CoV-2 strain BA.1 = assay type: cell-based
[2] = system: SARS-CoV-2 strain XBB.1.5; assay type: cell-based
in vitro [3] = details: human

Compound | IC50 (SARS-CoV-2 M^Pro) [nM] | further results
C[C@@H](OC(C)(C)C)[C@H](NC(=O)OCc1cn(CCOCCOCCOCCC(=O)Nc2cccc3c2C(=O)N(C2CCC(=O)NC2=O)C3=O)nn1)C(=O)N[C@@H](CC1CCCCC1)C(=O)N[C@H](C=O)C[C@@H]1CCNC1=O (some centres unmarked) [MPD5] | 36 | 
C[C@@H](OC(C)(C)C)[C@H](NC(=O)OCc1cn(CCOCCOCCOCCC(=O)N(C)CCN(C)c2cccc3c2C(=O)N(C2CCC(=O)NC2=O)C3=O)nn1)C(=O)N[C@@H](CC1CCCCC1)C(=O)N[C@H](C=O)C[C@@H]1CCNC1=O (some centres unmarked) [MPD6] | 111 | 
C[C@@H](OC(C)(C)C)[C@H](NC(=O)OCc1cccc(OCCCCOc2cccc3c2C(=O)N(C2CCC(=O)NC2=O)C3=O)c1)C(=O)N[C@@H](CC1CCCCC1)C(=O)N[C@H](C=O)C[C@@H]1CCNC1=O (some centres unmarked) [MPD1] |  | CLint scaled (in vitro [1]): 149 ± 12.7 mL/min/kg
C[C@@H](OC(C)(C)C)[C@H](NC(=O)OCc1cccc(OCCCCCCN(C)CCN(C)c2cccc3c2C(=O)N(C2CCC(=O)NC2=O)C3=O)c1)C(=O)N[C@@H](CC1CCCCC1)C(=O)N[C@H](C=O)C[C@@H]1CCNC1=O (some centres unmarked) [MPD4] | 36 | 
CC(C)(COCCCCCCOc1cccc2c1C(=O)N(C1CCC(=O)NC1=O)C2=O)NC(=O)N[C@H](C(=O)N1C[C@H]2[C@@H]([C@H]1C(=O)N[C@H](C=O)C[C@@H]1CCNC1=O)C2(C)C)C(C)(C)C (some centres unmarked) [MPD7] | 35 | 
CN(CCN(C)c1cccc2c1C(=O)N(C1CCC(=O)NC1=O)C2=O)C(=O)CCC(C)(C)NC(=O)N[C@H](C(=O)N1C[C@H]2[C@@H]([C@H]1C(=O)N[C@H](C=O)C[C@@H]1CCNC1=O)C2(C)C)C(C)(C)C (some centres unmarked) [MPD9] | 31 | 
CC(C)(CCOCCCCCCOc1cccc2c1C(=O)N(C1CCC(=O)NC1=O)C2=O)NC(=O)N[C@H](C(=O)N1C[C@H]2[C@@H]([C@H]1C(=O)N[C@H](C=O)C[C@@H]1CCNC1=O)C2(C)C)C(C)(C)C (some centres unmarked) [MPD8] | 24 | 
C[C@@H](OC(C)(C)C)[C@H](NC(=O)OCc1cccc(OCCCCCCOc2cccc3c2C(=O)N(C2CCC(=O)NC2=O)C3=O)c1)C(=O)N[C@@H](CC1CCCCC1)C(=O)N[C@H](C=O)C[C@@H]1CCNC1=O (some centres unmarked) [MPD2] |  | reduction of viral production (SARS-CoV-2 strain BA.1): 90%; reduction of viral production [2]: 90%; CLint scaled (in vitro [1]): 36.3 ± 2.51 mL/min/kg; CLint scaled at 1 h, 5 µM (in vitro [1]): 36.2 mL/min/kg
C[C@@H](OC(C)(C)C)[C@H](NC(=O)OCc1ccccc1)C(=O)N[C@@H](CC1CCCCC1)C(=O)N[C@H](C=O)C[C@@H]1CCNC1=O [MPI8, reference compound] |  | CC50 at 48 h (in vitro [3]): 70000 nM
CC(C)(CCC(=O)NCCCC(=O)Nc1cccc2c1C(=O)N(C1CCC(=O)NC1=O)C2=O)NC(=O)N[C@H](C(=O)N1C[C@H]2[C@@H]([C@H]1C(=O)N[C@H](C=O)C[C@@H]1CCNC1=O)C2(C)C)C(C)(C)C (some centres unmarked) [MPD10] | 149 | 
C[C@@H](OC(C)(C)C)[C@H](NC(=O)OCc1cccc(OCCCCCCCCOc2cccc3c2C(=O)N(C2CCC(=O)NC2=O)C3=O)c1)C(=O)N[C@@H](CC1CCCCC1)C(=O)N[C@H](C=O)C[C@@H]1CCNC1=O (some centres unmarked) [MPD3] |  | CLint scaled (in vitro [1]): 24.7 ± 0.5 mL/min/kg
